From ChEMBL document CHEMBL4354881, “Optimization of Potent ATAD2 and CECR2 Bromodomain Inhibitors with an Atypical Binding Mode” (J Med Chem, 2020) come the findings set out here.

SMILES strings stand for the structures.

Data set [1] has as its target Histone acetyltransferase KAT2A (Homo sapiens, UniProt Q92830). Description: Binding affinity to human partial length GCN5L2 (E726 to K837 residues) expressed in bacterial expression system by BROMOscan assay.
Data set [2] has as its target Bromodomain adjacent to zinc finger domain protein 2A (Homo sapiens, UniProt Q9UIF9). Description: Binding affinity to human partial length BAZ2A (M1792 to L1905 residues) expressed in bacterial expression system by BROMOscan assay.
Data set [3] deals with T1, ATPase family AAA domain-containing protein 2 (Homo sapiens, UniProt Q6PL18).
T1 sequence (Q6PL18 whole entry): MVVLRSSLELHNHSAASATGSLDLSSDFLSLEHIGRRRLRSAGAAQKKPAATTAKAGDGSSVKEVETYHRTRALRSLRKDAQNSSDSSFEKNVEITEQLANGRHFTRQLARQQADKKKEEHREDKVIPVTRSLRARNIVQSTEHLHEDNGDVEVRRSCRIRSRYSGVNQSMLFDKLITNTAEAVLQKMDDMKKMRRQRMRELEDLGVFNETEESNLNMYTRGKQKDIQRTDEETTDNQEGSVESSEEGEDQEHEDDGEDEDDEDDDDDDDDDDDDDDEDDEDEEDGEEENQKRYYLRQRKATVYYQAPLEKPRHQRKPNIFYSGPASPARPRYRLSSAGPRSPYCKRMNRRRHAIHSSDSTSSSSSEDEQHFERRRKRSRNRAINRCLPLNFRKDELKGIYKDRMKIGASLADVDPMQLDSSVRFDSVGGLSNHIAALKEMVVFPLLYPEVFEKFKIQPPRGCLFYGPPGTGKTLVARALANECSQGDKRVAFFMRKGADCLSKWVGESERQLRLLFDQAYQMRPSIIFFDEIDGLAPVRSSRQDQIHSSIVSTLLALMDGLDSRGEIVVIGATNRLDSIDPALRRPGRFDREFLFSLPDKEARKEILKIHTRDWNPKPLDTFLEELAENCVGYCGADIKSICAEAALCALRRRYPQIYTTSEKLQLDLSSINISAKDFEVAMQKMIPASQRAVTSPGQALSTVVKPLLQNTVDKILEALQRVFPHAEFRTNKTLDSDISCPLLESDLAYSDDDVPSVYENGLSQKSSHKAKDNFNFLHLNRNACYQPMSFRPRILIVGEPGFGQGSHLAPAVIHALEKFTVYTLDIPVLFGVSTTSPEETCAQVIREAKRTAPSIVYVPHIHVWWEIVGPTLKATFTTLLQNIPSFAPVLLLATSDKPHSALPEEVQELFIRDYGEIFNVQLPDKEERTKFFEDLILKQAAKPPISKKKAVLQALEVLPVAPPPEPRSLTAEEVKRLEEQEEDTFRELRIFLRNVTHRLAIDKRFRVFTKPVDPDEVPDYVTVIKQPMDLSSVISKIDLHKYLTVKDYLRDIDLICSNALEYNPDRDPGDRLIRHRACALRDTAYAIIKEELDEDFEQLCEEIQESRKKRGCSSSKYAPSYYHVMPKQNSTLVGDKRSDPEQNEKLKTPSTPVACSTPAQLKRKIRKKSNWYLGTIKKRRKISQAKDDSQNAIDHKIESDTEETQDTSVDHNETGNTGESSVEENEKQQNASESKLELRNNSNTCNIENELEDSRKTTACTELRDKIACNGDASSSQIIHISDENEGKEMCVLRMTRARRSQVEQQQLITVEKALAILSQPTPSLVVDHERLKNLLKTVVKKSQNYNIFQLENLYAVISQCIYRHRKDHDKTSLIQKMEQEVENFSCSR
Description: Displacement of Alexa Fluor 488-labeled ligand from FLAG-6His-Tev-fused ATAD2 (981 to 1121 residue) (unknown origin) measured after 30 mins by TR-FRET assay. On the technique in general: Time-resolved FRET reads energy transfer from a long-lived donor to a nearby acceptor.

Data set [4] concerns the target T2, Chromatin remodeling regulator CECR2 (Homo sapiens, UniProt Q9BXF3). Description: Binding affinity to human partial length CECR2 (P423 to D543 residues) expressed in bacterial expression system by BROMOscan assay.
Data set [5] concerns the target Bromodomain-containing protein 4 (Homo sapiens, UniProt O60885). Briefly: Displacement of Alexa Fluor 647-labeled ligand from BRD4 BD2 (unknown origin) measured after 30 mins by TR-FRET assay.
The target of data set [6] is T2, Chromatin remodeling regulator CECR2. Description: Displacement of Alexa Fluor 647-labeled GSK tracer from FLAG-6His-Tev-fused CECR2 (424 to 543 residue) (unknown origin) measured after 15 mins by TR-FRET assay.
The target in data set [7] is Transcription initiation factor TFIID subunit 1-like (Homo sapiens, UniProt Q8IZX4). Briefly: Binding affinity to human partial length TAF1L bromodomain 2 (Q1523 to D1654 residues) expressed in bacterial expression system by BROMOscan assay.
Transcription initiation factor TFIID subunit 1-like, sequence (Q8IZX4 whole entry, the tested form may be a part): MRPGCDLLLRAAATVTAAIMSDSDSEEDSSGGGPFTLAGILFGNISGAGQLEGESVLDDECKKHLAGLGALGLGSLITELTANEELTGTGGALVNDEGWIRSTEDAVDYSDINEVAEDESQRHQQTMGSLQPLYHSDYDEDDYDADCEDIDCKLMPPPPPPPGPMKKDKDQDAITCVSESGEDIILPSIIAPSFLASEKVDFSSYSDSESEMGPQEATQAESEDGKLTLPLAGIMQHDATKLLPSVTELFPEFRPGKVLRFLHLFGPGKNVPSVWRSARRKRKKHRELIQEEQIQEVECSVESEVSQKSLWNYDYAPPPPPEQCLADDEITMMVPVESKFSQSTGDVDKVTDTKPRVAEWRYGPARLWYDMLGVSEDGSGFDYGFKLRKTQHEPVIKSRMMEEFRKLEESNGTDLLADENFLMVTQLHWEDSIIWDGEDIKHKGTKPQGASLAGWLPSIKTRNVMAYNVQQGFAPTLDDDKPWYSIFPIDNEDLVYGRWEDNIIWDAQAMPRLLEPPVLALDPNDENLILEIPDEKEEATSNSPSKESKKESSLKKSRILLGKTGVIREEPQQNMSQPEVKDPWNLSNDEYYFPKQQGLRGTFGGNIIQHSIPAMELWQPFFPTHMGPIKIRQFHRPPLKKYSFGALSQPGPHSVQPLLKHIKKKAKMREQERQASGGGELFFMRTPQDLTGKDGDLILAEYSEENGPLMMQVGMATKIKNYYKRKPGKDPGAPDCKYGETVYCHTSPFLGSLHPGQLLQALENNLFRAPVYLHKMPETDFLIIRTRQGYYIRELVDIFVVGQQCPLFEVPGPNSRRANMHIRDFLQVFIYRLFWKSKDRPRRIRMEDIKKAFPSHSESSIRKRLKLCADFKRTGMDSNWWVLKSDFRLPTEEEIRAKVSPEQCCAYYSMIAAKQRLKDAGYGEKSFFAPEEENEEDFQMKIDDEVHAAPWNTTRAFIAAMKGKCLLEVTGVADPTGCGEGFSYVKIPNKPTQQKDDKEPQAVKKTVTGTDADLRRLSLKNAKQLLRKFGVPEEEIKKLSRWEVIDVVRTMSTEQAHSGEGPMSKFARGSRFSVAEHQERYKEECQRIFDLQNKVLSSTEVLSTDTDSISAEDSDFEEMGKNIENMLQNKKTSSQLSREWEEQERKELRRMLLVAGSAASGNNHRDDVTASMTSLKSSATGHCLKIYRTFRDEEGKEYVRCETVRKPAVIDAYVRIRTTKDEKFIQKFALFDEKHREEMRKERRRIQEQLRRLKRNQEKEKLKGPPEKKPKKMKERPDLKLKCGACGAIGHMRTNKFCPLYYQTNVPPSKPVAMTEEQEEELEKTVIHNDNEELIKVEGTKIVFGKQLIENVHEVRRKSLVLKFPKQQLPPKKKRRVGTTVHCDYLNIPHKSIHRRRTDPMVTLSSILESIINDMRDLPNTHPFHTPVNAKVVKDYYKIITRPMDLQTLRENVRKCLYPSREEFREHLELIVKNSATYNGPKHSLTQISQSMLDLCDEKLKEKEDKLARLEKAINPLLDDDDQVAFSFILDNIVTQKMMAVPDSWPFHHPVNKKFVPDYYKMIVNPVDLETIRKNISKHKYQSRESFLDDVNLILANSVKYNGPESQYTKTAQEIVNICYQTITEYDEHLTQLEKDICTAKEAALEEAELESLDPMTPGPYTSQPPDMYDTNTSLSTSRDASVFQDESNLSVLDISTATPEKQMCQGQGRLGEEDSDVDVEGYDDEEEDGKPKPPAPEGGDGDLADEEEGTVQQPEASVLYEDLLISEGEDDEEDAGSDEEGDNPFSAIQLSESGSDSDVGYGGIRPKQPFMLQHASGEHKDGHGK
A short description of data set [8]: Permeability of the compound by artificial lipid membrane-based method. Particulars: not told; read-out: permeability. Type of data set: ADME.

T2 sequence (Q9BXF3 whole entry, the tested form may be a part): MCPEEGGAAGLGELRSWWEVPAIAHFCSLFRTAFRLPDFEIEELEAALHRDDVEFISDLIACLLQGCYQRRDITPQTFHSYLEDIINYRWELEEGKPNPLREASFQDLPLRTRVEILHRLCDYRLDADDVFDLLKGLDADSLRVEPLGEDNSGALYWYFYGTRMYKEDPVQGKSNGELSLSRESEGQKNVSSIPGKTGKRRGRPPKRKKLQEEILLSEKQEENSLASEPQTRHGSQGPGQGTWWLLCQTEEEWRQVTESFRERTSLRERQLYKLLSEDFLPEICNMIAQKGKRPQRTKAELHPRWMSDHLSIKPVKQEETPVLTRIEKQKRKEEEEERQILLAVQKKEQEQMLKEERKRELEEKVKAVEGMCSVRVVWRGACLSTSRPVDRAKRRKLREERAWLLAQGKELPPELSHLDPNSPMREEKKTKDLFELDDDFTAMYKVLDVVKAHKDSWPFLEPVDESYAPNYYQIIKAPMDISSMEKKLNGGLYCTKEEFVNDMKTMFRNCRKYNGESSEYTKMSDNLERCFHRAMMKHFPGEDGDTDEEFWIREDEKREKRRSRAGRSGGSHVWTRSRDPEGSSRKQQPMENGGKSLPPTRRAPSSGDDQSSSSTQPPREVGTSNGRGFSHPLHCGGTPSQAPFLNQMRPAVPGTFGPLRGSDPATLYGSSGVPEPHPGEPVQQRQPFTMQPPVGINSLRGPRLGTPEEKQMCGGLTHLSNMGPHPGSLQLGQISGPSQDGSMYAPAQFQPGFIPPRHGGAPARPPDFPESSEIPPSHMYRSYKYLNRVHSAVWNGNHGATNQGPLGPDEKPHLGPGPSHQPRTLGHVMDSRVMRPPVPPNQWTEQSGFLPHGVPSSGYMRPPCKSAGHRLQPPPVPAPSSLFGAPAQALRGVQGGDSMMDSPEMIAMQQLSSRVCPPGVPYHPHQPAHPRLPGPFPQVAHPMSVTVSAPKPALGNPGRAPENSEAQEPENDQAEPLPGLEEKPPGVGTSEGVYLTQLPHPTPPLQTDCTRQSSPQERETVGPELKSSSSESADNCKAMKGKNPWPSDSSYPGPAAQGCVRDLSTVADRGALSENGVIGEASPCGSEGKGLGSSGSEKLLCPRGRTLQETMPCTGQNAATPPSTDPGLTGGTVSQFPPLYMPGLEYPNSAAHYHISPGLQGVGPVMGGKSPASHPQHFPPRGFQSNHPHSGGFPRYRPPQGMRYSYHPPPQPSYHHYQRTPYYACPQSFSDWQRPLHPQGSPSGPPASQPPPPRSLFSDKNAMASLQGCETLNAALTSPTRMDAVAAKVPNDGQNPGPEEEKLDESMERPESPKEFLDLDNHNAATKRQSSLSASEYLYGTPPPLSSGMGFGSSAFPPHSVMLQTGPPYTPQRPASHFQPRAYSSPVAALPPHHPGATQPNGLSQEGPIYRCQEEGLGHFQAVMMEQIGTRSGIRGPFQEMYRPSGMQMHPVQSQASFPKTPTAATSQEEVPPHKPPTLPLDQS
Histone acetyltransferase KAT2A, sequence (Q92830 whole entry, the tested form may be a part): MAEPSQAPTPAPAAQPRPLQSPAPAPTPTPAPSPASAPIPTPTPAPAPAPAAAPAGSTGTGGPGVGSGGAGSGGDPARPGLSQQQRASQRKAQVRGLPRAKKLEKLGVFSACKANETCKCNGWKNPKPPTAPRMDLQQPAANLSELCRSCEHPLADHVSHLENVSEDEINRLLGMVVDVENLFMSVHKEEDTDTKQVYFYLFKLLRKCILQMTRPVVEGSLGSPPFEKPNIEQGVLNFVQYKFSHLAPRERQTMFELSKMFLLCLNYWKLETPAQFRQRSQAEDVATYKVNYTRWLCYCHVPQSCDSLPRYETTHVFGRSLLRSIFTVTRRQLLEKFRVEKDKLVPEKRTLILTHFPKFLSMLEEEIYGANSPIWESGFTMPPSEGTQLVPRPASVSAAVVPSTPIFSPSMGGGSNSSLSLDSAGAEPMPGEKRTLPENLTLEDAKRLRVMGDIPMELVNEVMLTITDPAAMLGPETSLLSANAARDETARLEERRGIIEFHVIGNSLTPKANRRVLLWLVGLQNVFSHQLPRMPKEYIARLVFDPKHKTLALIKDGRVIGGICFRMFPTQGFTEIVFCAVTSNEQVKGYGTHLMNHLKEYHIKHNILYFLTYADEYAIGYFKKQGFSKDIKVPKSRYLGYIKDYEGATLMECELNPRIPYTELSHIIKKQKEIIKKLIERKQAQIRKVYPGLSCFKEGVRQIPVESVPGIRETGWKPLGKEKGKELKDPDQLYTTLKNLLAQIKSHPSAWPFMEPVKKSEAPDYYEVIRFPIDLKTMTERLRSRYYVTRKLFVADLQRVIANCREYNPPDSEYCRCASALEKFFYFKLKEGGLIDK

For orientation: Kd means the concentration at which binding is half-saturated. Low values mean higher affinity, high ones lower affinity. One may read the IC50 as the point on the concentration scale where inhibition reaches its midpoint. Lower therefore signals inhibition by little substance. As to `C[C@H]1CCN(S(=O)(=O)c2cc(NC(=O)CN3C(=O)N[C@@](C)(C4CC4)C3=O)ccc2Br)C1`, the Kd in data set [1] is 251 nM; in data set [2], 15.8 nM; in data set [4], 25.1 nM; in data set [7], 25.1 nM. Further, the values for the half-maximal inhibitory concentration (IC50) in data set [3], in data set [5] and in data set [6] were 63.1 nM, 12600 nM and 316 nM, respectively. Also, the Papp in data set [8] was 9.9 ×10⁻⁶ cm/s.
